{"source": "patent US20230159931A1", "about": "“TARGETING THE PALMOTYLATION/DEPALMOTYLATION CYCLE TO TREAT INFLAMMATORY DISEASES” (CORNELL UNIVERSITY, priority 2020, published 2023)", "key": {"SMAD2 S-palmitoylation": {"tested_on": "SMAD2 S-palmitoylation", "experiment": "SMAD2 S-palmitoylation in HEK293T cells treated with APT inhibitors (Alk14, in-gel fluorescence)", "type": "cell-based, human", "details": "10 μM APT inhibitors for 24 hours; HEK293T cells with HA-DHHC7 and Flag-SMAD2", "from_the_text": "FIGS. 7A-7G. APT2 is the depalmitylase of SMAD2 and C-terminal phosphorylation of SMAD2 is S-palmitoylation independent. (A) C-terminal phosphorylation (Ser465/Ser467) levels of Flag-SMAD2 (p-SMAD2(C2)) in HEK293T cells expressing HA-tagged mouse DHHC1-23. SMAD2 was pulled down with Flag beads and subjected to western blot analyses. (B) HEK293T cells were transfected with HA-tagged DHHC7 and Flag-SMAD2 WT and C41/81S mutant plasmid and treated with Alk14. The S-palmitoylation level of immunoprecipitated SMAD2 was visualized by in-gel fluorescence and the p-SMAD2(C2) level was detected by western blot analyses. […] The S-palmitoylation level of immunoprecipitated SMAD2 was visualized by in-gel fluorescence. […] The cells were labeled with Alk14 and the S-palmitoylation of SMAD2 was determined by in-gel fluorescence. […] The cells were labeled with Alk14 and the S-palmitoylation of SMAD2 was determined by in-gel fluorescence and the p-SMAD2(C2) level was detected by western blot analyses. […]\nCells were treated with 50 μM palmitic acid analogue Alkyne 14 (Alk14) for 5 h and the collected and lysed in 1% NP-40 lysis buffer (25 mM Tris-HCl pH 8.0, 150 mM NaCl, 10% glycerol, 1% Nonidet P-40) with protease inhibitor cocktail. […] The protein concentration was determined by Bradford assay (23200, Thermo Fisher). […]"}, "[1]": {"tested_on": "DSS-induced colitis in mice", "experiment": "DSS-induced mouse colitis model", "type": "in vivo", "protocol": "FIGS. 4A-4I. The STAT3 palmitoylation-depalmitoylation cycle aggravates colitis. (A), (B) Human PBMCs from 26 healthy participants (Ctrl), 24 patients with Crohn's disease (CD; 7 remission stage (rem.) and 17 active stage (act.)) and 10 patients with ulcerative colitis (UC; 1 remission stage and 9 active stage) were extracted. LYPLA2 and ZDHHC7 mRNA levels were analysed using qPCR. The relative p-STAT3 levels were quantified by western blots. c, d, The correlations between IL17A (C) or p-STAT3 (D) and the mRNA levels of the indicated genes in 34 patients with IBD. (E), (F), C57BL/6J mice were treated with 2.5% DSS in drinking water ad libitum and ML349 was intraperitoneally injected daily on the day that DSS treatment started. Body weight changes (E) and TH17 cell levels in the spleen (F) were evaluated. (G), (H), Wild-type and DHHC7-knockout mice were treated with 2.5% DSS in drinking water ad libitum. Body weight changes (G) and TH17 cell levels in the spleen (H) were evaluated. (I), Model of the regulation of STAT3 by the palmitoylation-depalmitoylation cycle. Palmitoylation of STAT3 by DHHC7 promotes the membrane recruitment and phosphorylation of STAT3. APT2 promotes the nuclear translocation of p-STAT3 by selectively depalmitoylating p-STAT3 over STAT3. The palmitoylation-depalmitoylation cycle drives the membrane localization and phosphorylation of STAT3, and the nuclear translocation of p-STAT3. The direction of the cycle is ensured by the preference of APT2 for p-STAT3 over STAT3. Data are expressed as the mean±s.e.m. *P<0.05; **P<0.01.\nThe mouse protocol 2019-0009 was approved by the Institutional Animal Care and Use Committee (IACUC) at Cornell University. All animals were housed under specific-pathogen-free conditions following the regulations of the IACUC. Mice (6-8 weeks old) were randomized into different groups (8 mice per group, mixed sex) as indicated. Colitis was induced by treating with 3.0% DSS (MP Biomedicals) in their drinking water ad libitum. ML349 solution was intraperitoneally injected into the mice at the indicated doses every other day. All mice were euthanized and the spleens were isolated to detect T cells. The distance from caecum to anus was measured. The colon was fixed in 4% paraformaldehyde for pathological examination. The study was not blinded.\n(§1) The inventors tested whether the pharmacological inhibition of APT2 with ML349 could reduce dextran sulfate sodium (DSS)-induced colitis in mice, an experimental model for IBD."}, "[2]": {"experiment": "Tolerability of ML349 in mice", "type": "in vivo", "details": "50 mg kg^−1, mice", "from_the_text": "as §1"}, "[3]": {"details": "DSS treatment followed by ML349 treatment, intraperitoneal"}, "[4]": {"details": "pretreatment with ML349 followed by treatment with DSS"}}}
{"smiles": "COc1ccc(N2CCN(C(=O)c3cc4c(s3)-c3ccccc3S(=O)(=O)C4)CC2)cc1", "note": "[ML349]", "values": [{"measurement": "SMAD2 S-palmitoylation signal", "setting": "SMAD2 S-palmitoylation", "result": "significantly enhanced"}, {"measurement": "colon shortening", "setting": "[1]; [3]", "result": "significantly attenuated"}, {"measurement": "weight loss", "setting": "[1]; [3]", "result": "significantly attenuated"}, {"measurement": "levels of TH17 cells in mouse splenocytes", "setting": "[1]; DSS-treated mice, spleen", "result": "significantly decreased"}, {"measurement": "survival rate", "setting": "[1]; [4]", "result": "increased the survival rate"}, {"measurement": "weight loss", "setting": "[1]; [4]", "result": "significantly attenuated weight loss"}, {"measurement": "tolerability", "setting": "[2]", "result": "well tolerated"}]}
